29 molecules from patent publication US20100144733A1, “Compounds, compositions and methods comprising heteroaromatic derivatives” (Institute for OneWorld Health, priority 2008, published 2010) can be followed below.

The term IC50 denotes the point on the concentration scale where inhibition reaches its midpoint.

Each structure is given as a SMILES string.

T1 sequence (P13569 whole entry): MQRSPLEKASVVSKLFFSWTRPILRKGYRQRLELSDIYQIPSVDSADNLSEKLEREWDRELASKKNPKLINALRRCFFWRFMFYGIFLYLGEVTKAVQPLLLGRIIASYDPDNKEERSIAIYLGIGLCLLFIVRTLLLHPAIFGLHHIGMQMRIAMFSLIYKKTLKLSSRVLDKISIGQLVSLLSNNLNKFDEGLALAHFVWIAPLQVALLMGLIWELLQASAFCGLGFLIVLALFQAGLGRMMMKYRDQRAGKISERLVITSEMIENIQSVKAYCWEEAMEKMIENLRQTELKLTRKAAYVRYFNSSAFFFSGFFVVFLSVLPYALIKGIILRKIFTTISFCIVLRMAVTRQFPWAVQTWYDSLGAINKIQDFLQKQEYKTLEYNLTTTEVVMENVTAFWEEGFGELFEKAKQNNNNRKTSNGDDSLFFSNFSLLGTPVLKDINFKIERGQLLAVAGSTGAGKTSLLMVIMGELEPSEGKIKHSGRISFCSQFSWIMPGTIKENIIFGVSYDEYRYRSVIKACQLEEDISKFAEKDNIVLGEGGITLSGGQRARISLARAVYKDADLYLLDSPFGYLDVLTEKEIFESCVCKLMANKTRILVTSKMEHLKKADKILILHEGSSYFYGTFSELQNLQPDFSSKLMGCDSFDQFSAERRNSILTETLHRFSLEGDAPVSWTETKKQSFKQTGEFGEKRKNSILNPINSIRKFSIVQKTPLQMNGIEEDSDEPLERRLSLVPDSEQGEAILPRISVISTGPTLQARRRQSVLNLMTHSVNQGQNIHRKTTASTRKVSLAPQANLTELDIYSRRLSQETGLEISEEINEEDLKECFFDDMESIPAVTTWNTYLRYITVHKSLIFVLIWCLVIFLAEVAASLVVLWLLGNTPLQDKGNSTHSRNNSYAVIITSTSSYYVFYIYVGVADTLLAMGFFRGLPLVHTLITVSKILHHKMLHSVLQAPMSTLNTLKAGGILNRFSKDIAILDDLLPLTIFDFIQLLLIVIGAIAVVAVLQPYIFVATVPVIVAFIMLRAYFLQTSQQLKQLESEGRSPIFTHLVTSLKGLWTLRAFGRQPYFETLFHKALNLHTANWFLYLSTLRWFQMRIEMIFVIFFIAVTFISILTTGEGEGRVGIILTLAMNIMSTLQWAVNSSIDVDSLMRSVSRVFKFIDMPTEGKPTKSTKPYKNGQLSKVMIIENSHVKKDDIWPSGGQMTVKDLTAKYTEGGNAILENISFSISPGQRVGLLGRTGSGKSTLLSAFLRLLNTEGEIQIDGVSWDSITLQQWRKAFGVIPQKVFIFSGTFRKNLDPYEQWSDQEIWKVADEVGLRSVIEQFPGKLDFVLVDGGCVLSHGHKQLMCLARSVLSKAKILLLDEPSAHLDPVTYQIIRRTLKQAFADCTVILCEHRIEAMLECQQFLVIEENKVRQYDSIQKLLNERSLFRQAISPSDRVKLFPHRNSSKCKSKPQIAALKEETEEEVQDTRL

One assay concerns the target T1, CFTR (Homo sapiens, UniProt P13569).
T1 construct: endogenous in cells; host or cells: T84 human colonic cells (ECACC)
Briefly: T84 assay (FLIPR membrane potential dye, forskolin/IBMX-stimulated CFTR channel activity). Particulars: imidazole and triazole-containing compounds (Tables 13, 14, 14′), read-out: IC50 (μM) (T84 assay). In kind it is cell-based. On the procedure: (§1) For example, Human colonic T84 cells can be acquired from the European Collection of Cell Cultures (ECACC) and grown in standard culture conditions as described by the supplier. On the day before assay 25,000 T84 cells per well are plated into standard black walled, clear bottom 384-well assay plates in standard growth medium consisting of DMEM:F12 with 10% FBS and incubated overnight. On the day of the assay the plates are washed using a standard assay buffer (HBSS with 10 mM Hepes) and incubated for 15 minutes in serum free cell culture medium before the addition of a commercially available membrane potential sensitive fluorescent dye (FLIPRRed membrane potential dye, Molecular Devices Corporation). T84 cells are incubated with the FLIPRRed membrane potential dye for 45 minutes in the presence and absence of test compound before being transferred to a commercially available fluorescence imaging plate reader (FLIPR384, Molecular Devices Corporation). Fluorescence levels are monitored continuously every second for 150 seconds; after an initial 10 second baseline, CFTR channel activity is stimulated through the addition of 10 μM forskolin in the presence of 100 μM of the phosphodiesterase inhibitor iso-butyl-methylxanthine (IBMX). Addition of the forskolin leads to the activation of intracellular adenylyl cylase 1, elevating cAMP levels and results in the phosphorylation and opening of CFTR anion channels. CFTR channel opening causes chloride ion efflux and subsequent depolarization of the cells, which is measured by an increase in fluorescence. CFTR inihibitor compounds prevent cell depolarization and the associatred increase in fluorescence.
as §1, with “Human colonic” for “For example, Human colonic”, “T84 cells are acquired from” for “T84 cells can be acquired from”, “(ECACC) and are grown in” for “(ECACC) and grown in”, “10 μM Forskolin in the” for “10 μM forskolin in the”, “fluorescence. CFTR inhibitor compounds prevent” for “fluorescence. CFTR inihibitor compounds prevent”, “and the associated increase in” for “and the associatred increase in”
`COCCOCCOCCOCCOCCN(Cc1ccc(C(C)(C)C)cc1)C(=O)c1ncn(-c2cc(Cl)c(O)c(Cl)c2)n1` [118i, N-(4-tert-butylbenzyl)-1-(3,5-dichloro-4-hydroxyphenyl)-N-(2,5,8,11,14-pentaoxahexadecan-16-yl)-1H-1,2,4-triazole-3-carboxamide]: the IC50 is 17.3 µM.
For `O=C(c1ccccc1)C1CCN(C(=O)c2ncn(-c3cc(Cl)c(O)c(Cl)c3)n2)CC1` [61i, (4-benzoylpiperidin-1-yl)(1-(3,5-dichloro-4-hydroxyphenyl)-1H-1,2,4-triazol-3-yl)methanone], the IC50 was determined as 26.7 µM.
The same measure, in the same setting: the same measure for `O=C(NCc1cccc(Cl)c1)c1ncn(-c2cc(Cl)c(O)c(Cl)c2)n1` [47i, N-(3-chlorobenzyl)-1-(3,5-dichloro-4-hydroxyphenyl)-1H-1,2,4-triazole-3-carboxamide]: 12.6 µM.

Still in this assay, the particulars now being: oxadiazole-containing compounds (a series), average of at least 2 runs unless annotated n = 1, read-out: IC50.
With `O=C(NCc1cccc(OC(F)F)c1)c1nc(-c2cc(Cl)c(O)c(Cl)c2)no1` [135a, 3-(3,5-dichloro-4-hydroxyphenyl)-N-(3-(difluoromethoxy)benzyl)-1,2,4-oxadiazole-5-carboxamide], the half-maximal inhibitory concentration (IC50) came to 20.4 µM.
For `CN(Cc1ccc(C(F)(F)F)cc1)C(=O)c1nc(-c2cc(Cl)c(O)c(Cl)c2)no1` [138a, 3-(3,5-dichloro-4-hydroxyphenyl)-N-methyl-N-(4-(trifluoromethyl)benzyl)-1,2,4-oxadiazole-5-carboxamide], the IC50 was determined as 3.84 µM.
As for `CN(Cc1ccccc1)C(=O)c1nc(-c2cc(Br)c(O)c(Br)c2)no1` [28a, N-benzyl-3-(3,5-dibromo-4-hydroxyphenyl)-N-methyl-1,2,4-oxadiazole-5-carboxamide], the IC50 came out at 15.3 µM.
Consider `O=C(NCc1ccc2sccc2c1)c1nc(-c2cc(Br)c(O)c(Br)c2)no1` [10a, N-(benzo[b]thiophen-5-ylmethyl)-3-(3,5-dibromo-4-hydroxyphenyl)-1,2,4-oxadiazole-5-carboxamide], for which the half-inhibitory concentration (IC50) was found to be 7.26 µM.
The same measure, in the same setting: for `CN(C)c1ccc(Oc2ccc(CNC(=O)c3nc(-c4cc(Cl)c(O)c(Cl)c4)no3)cc2)cc1` [197a, 3-(3,5-dichloro-4-hydroxyphenyl)-N-(4-(4-(dimethylamino)phenoxy)benzyl)-1,2,4-oxadiazole-5-carboxamide] the value was 7.76 µM; for `O=C(NCc1ccccc1)c1nc(-c2cc(Br)c(O)c(Br)c2)no1` [33a, N-benzyl-3-(3,5-dibromo-4-hydroxyphenyl)-1,2,4-oxadiazole-5-carboxamide], 17.8 µM.
Take `CN(C)c1cccc(CNC(=O)c2noc(-c3cc(Cl)c(O)c(Cl)c3)n2)c1` [160a, 5-(3,5-dichloro-4-hydroxyphenyl)-N-(3-(dimethylamino)benzyl)-1,2,4-oxadiazole-3-carboxamide]: the half-inhibitory concentration (IC50) came out at 7.26 µM.
On to `O=C(NCc1ccc(Oc2ccc(F)c(C(F)(F)F)c2)cc1)c1nc(-c2cc(Cl)c(O)c(Cl)c2)no1` [200a, 3-(3,5-Dichloro-4-hydroxyphenyl)-N-(4-(4-fluoro-3-(trifluoromethyl)phenoxy)benzyl)-1,2,4-oxadiazole-5-carboxamide], for which the IC50 came to 13.2 µM.
Take `CN(Cc1ccc(Oc2ccccn2)cc1)C(=O)c1nc(-c2cc(Cl)c(O)c(Cl)c2)no1` [173a, 3-(3,5-dichloro-4-hydroxyphenyl)-N-methyl-N-(4-(pyridin-2-yloxy)benzyl)-1,2,4-oxadiazole-5-carboxamide]: the half-inhibitory concentration (IC50) was 12.4 µM.
In the case of `CN(Cc1ccc(-c2ccccn2)cc1)C(=O)c1nc(-c2cc(Cl)c(O)c(Cl)c2)no1` [186a, 3-(3,5-dichloro-4-hydroxyphenyl)-N-methyl-N-(4-(pyridin-2-yl)benzyl)-1,2,4-oxadiazole-5-carboxamide], the IC50 is 5.66 µM.
On the same count and under the same terms, the same measure for `O=C(c1nc(-c2cc(Cl)c(O)c(Cl)c2)no1)N(Cc1ccc(Oc2ccccc2)cc1)Cc1cccnc1` [168a, 3-(3,5-dichloro-4-hydroxyphenyl)-N-(4-phenoxybenzyl)-N-(pyridin-3-ylmethyl)-1,2,4-oxadiazole-5-carboxamide]: 2.11 µM; for `O=C(c1nc(-c2cc(Cl)c(O)c(Cl)c2)no1)N(CCO)Cc1ccccc1` [121a, N-benzyl-3-(3,5-dichloro-4-hydroxyphenyl)-N-(2-hydroxyethyl)-1,2,4-oxadiazole-5-carboxamide]: 19.2 µM.
Still for that read-out and setting: the same measure for `O=C(NCc1ccc(Oc2ccc(F)cc2)cc1)c1nc(-c2cc(Cl)c(O)c(Cl)c2)no1` [171a, 3-(3,5-dichloro-4-hydroxyphenyl)-N-(4-(4-fluorophenoxy)benzyl)-1,2,4-oxadiazole-5-carboxamide]: 7.44 µM; for `CC(NC(=O)c1nc(-c2cc(Cl)c(O)c(Cl)c2)no1)c1ccc(Cl)cc1` (centres unmarked) [149a, N-(1-(4-chlorophenyl)ethyl)-3-(3,5-dichloro-4-hydroxyphenyl)-1,2,4-oxadiazole-5-carboxamide]: 6.7 µM; for `CN(Cc1cccc(-c2cccnc2)c1)C(=O)c1nc(-c2cc(Cl)c(O)c(Cl)c2)no1` [185a, 3-(3,5-dichloro-4-hydroxyphenyl)-N-methyl-N-(3-(pyridin-3-yl)benzyl)-1,2,4-oxadiazole-5-carboxamide]: 5.11 µM.
`O=C(c1noc(-c2cc(Cl)c(O)c(Cl)c2)n1)N1CCC(Cc2ccccc2)CC1` [78a, (4-benzylpiperidin-l-yl)(5-(3,5-dichloro-4-hydroxyphenyl)-1,2,4-oxadiazol-3-yl)methanone]: the IC50 is 11.2 µM.
On to `COc1cc(Oc2ccc(CNC(=O)c3nc(-c4cc(Cl)c(O)c(Cl)c4)no3)cc2)ccc1F` [191a, 3-(3,5-dichloro-4-hydroxyphenyl)-N-(4-(4-fluoro-3-methoxyphenoxy)benzyl)-1,2,4-oxadiazole-5-carboxamide], for which the IC50 came out at 8.85 µM.
In the case of `O=C(NCC(c1ccccc1)c1ccccc1)c1nc(-c2cc(Br)c(O)c(Br)c2)no1` [9a, 3-(3,5-dibromo-4-hydroxyphenyl)-N-(2,2-diphenylethyl)-1,2,4-oxadiazole-5-carboxamide], the IC50 was found to be 7.17 µM.
Still for that read-out and setting: the same measure for `CN(Cc1ccccc1)C(=O)c1nc(-c2cc(Cl)c(O)c(Cl)c2)no1` [62a, N-benzyl-3-(3,5-dichloro-4-hydroxyphenyl)-N-methyl-1,2,4-oxadiazole-5-carboxamide]: 18.6 µM; for `CN(Cc1cccc(-c2cncnc2)c1)C(=O)c1nc(-c2cc(Cl)c(O)c(Cl)c2)no1` [177a, 3-(3,5-dichloro-4-hydroxyphenyl)-N-methyl-N-(3-(pyrimidin-5-yl)benzyl)-1,2,4-oxadiazole-5-carboxamide]: 16.3 µM; for `O=C(NCc1ccccc1F)c1nc(-c2cc(Br)c(O)c(Br)c2)no1` [35a, 3-(3,5-dibromo-4-hydroxyphenyl)-N-(2-fluorobenzyl)-1,2,4-oxadiazole-5-carboxamide]: 19.2 µM.
Still for that read-out and setting: the same measure for `O=C(NCc1ccc(C(F)(F)F)cc1F)c1nc(-c2cc(Cl)c(O)c(Cl)c2)no1` [124a, 3-(3,5-dichloro-4-hydroxyphenyl)-N-(2-fluoro-4-(trifluoromethyl)benzyl)-1,2,4-oxadiazole-5-carboxamide]: 14.6 µM; for `O=C(NCc1ccc(Oc2ccc(C(F)(F)F)cc2)cc1)c1nc(-c2cc(Cl)c(O)c(Cl)c2)no1` [198a, 3-(3,5-dichloro-4-hydroxyphenyl)-N-(4-(4-(trifluoromethyl)phenoxy)benzyl)-1,2,4-oxadiazole-5-carboxamide]: 19.6 µM.
Regarding `O=C(NCc1c(F)cccc1F)c1noc(-c2cc(Cl)c(O)c(Cl)c2)n1` [103a, 5-(3,5-dichloro-4-hydroxyphenyl)-N-(2,6-difluorobenzyl)-1,2,4-oxadiazole-3-carboxamide], the IC50 is 9.64 µM.
With `CC(C)(C)c1ccc(N2CCN(C(=O)c3nc(-c4cc(Br)c(O)c(Br)c4)no3)CC2)cc1` [25a, (4-(4-tert-butylphenyl)piperazin-1-yl)(3-(3,5-dibromo-4-hydroxyphenyl)-1,2,4-oxadiazol-5-y1)methanone], the IC50 amounted to 10.9 µM.

Still in this assay, the particulars now being: triazine-containing compounds (Table 8 and 8′), read-out: IC50.
Turning to `N#Cc1ccc(COc2ncc(-c3cc(Br)c(O)c(Br)c3)nn2)cc1` [101e, 4-((6-(3,5-dibromo-4-hydroxyphenyl)-1,2,4-triazin-3-yloxy)methyl)benzonitrile], the IC50 came out at 3.49 µM.
